For experiment [1], the system named is TF pre-mRNA splicing in platelets. Description: TF pre-mRNA splicing in platelets (PCR). The conditions noted are these: for pre-mRNA splicing events in platelets: commonly used medications in patients. The experiment is classed as cell-based, human. An excerpt:
TF pre-mRNA splicing may be measured by any method known in the art, including, but not limited to, PCR using primers that target sequences in exon four (5′-[…]-3′; SEQ ID NO: 1) and five (5′-[…]-3′; SEQ ID NO: 2), and thus span intron four^3. Likewise, detection of full-length mature mRNA for human TF (mHTF) in platelets may be measured using any method known in the art, including, but not limited to, using primers targeting sequences in exon one (5′-[…]-3′; SEQ ID NO: 3) and exon six (5′-[…]-3′; SEQ ID NO: 4). In light of the disclosure herein, a person of ordinary skill in the art may select and use alternative primers based on the sequence of the gene/RNA^54. Primer design may be aided by the use of available computer programs, such as OLIGO™ (available from Hitachi Software), Primer3 (available online from the University of Massachusetts Medical School), GeneFisher (available online from the Universitat Bielefeld, Germany), or OligoAnalyzer (available from Integrated DNA Technologies, Inc.).
Platelets were isolated from each patient within 48 hours of admission to the ICU and TF mRNA expression patterns were characterized in each patient. In addition, clinical data for each patient including age and gender, admission diagnoses, APACHE II score, laboratory and microbiology results, and mortality were also collected. When feasible, platelets were also isolated from blood that was obtained on days three, five, and ten. The blood samples were processed immediately. Pre-mRNA splicing was also evaluated in platelets isolated from healthy volunteers (age 18-50) that were not taking medications. Platelets isolated from patients with sepsis and routine healthy control donors were processed in parallel.
Platelets from healthy subjects were left quiescent or activated with α-toxin (10 ng/ml; List Biological Laboratories Inc.) or lipopolysaccharide (LPS; 100 ng/ml; Sigma), toxins produced by gram-positive Staph. aureus and gram-negative E. Coli, respectively. Platelets were kept quiescent or activated in suspension with MRSA or E. coli at a bacteria to platelet ratio of 1:10. The bacteria were obtained from blood cultures from sepsis patients by ARUP, a national reference laboratory under standard conditions. For these studies, the bacteria were swiped from the culture plate, re-suspended, and the desired concentration was adjusted against a standard solution using a colorimeter (Vitek Colorimeter, bioMéreux, Inc.).

Another experiment concerns the target SRPK2 (Homo sapiens, UniProt P78362). The conditions noted are these: concentrations up to 1 μM; cited from earlier work.
In the next experiment the test system is PKA. The settings on record: concentrations up to 1 μM; cited from earlier work.
The test system of experiment [2] is platelets. The conditions noted are these: cited from earlier work.
A further experiment has as its target SRPK1 (Homo sapiens, UniProt Q96SB4). The conditions noted are these: concentrations up to 1 μM; cited from earlier work.
The next experiment deals with PKC. The settings on record: concentrations up to 1 μM; cited from earlier work.
In experiment [3] the test system is platelets. Description: Plasma clot formation by activated platelets or their membranes. The class given is cell-based, human. The conditions noted are these: platelets activated with thrombin for 2 hours, FIG. 5.

SRPK2, sequence (P78362 whole entry, species assumed): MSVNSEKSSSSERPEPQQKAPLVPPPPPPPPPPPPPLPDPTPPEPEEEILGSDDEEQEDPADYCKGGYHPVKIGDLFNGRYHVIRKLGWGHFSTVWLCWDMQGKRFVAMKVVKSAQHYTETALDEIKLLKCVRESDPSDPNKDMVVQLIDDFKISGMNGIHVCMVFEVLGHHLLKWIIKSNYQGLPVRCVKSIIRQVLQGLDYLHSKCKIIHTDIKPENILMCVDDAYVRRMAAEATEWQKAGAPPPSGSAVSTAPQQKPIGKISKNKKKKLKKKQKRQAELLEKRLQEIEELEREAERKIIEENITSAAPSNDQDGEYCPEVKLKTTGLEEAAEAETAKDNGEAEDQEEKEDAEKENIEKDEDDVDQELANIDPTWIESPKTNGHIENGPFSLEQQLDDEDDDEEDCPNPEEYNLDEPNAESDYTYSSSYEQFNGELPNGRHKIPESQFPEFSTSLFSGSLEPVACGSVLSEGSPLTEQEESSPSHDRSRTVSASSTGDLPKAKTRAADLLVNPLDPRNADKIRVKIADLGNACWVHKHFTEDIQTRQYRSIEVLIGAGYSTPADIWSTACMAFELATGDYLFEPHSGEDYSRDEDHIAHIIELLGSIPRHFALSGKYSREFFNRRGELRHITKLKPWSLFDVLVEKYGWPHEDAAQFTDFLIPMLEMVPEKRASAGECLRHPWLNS
SRPK1, sequence (Q96SB4 whole entry, species assumed): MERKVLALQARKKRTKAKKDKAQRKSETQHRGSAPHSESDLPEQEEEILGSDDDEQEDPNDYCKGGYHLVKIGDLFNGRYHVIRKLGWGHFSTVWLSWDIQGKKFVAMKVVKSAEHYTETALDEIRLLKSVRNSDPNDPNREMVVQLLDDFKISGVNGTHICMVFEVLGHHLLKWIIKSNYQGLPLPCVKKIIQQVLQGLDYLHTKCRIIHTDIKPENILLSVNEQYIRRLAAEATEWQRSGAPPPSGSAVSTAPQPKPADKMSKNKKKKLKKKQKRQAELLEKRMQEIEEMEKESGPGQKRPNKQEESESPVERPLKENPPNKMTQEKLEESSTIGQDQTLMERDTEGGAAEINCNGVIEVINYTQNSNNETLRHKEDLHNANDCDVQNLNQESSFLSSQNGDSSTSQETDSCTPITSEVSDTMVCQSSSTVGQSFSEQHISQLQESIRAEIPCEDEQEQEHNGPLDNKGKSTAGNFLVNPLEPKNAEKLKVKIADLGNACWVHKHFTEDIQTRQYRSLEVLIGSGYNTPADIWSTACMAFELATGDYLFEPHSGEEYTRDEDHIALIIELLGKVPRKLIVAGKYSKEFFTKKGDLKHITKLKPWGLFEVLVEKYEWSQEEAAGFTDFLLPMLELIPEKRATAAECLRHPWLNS

For the compound `CC(=O)CC(c1ccccc1)c1c(O)c2ccccc2oc1=O` (stereo not drawn) [warfarin], the “pre-mRNA splicing events in platelets” value in experiment [1] is on record as “do not affect”.
For the compound `CCN1/C(=C/C(C)=O)Sc2ccc(OC)cc21` [Tg003, (Z)-1-(3-Ethyl-5-methoxy-2,3-dihydrobenzothiazol-2-ylidene)propan-2-one], the “effect on SRPK2 activity” value at SRPK2 is reported as “does not affect”. Further, the pre-mRNA splicing entry in experiment [1] (platelets activated with thrombin, FIG. 5) is recorded as “blocks pre-mRNA splicing”. Moreover, the “effect on PKA activity” value in the experiment with PKA was “does not affect”. In the experiment on platelets [2], the “platelet adhesion, spreading, and aggregation” value is “does not alter”. In addition, the “effect on SRPK1 activity” value on SRPK1 is “does not affect”. Moreover, the “effect on PKC activity” value with PKC is listed as “does not affect”. Moreover, in the experiment on platelets [3], the plasma clot formation entry was “reduces clot formation”.
heparin: the “TF pre-mRNA splicing” value in experiment [1] (platelets of septic patients who received heparin to prevent VTE) is listed as “does not block”.
With lipopolysaccharide [LPS], the “induction of TF pre-mRNA splicing” value in experiment [1] (platelets from healthy volunteers, 2 hours, FIGS. 11 and 12) is given as “induced TF pre-mRNA splicing”.
In the case of `CC(=O)Oc1ccccc1C(=O)O` [Aspirin], the “pre-mRNA splicing events in platelets” value in experiment [1] is listed as “do not affect”. In experiment [1] (platelets of elderly subject taking aspirin 325 mg daily, thrombin 0.05 U/ml for 1 hour, FIG. 2), the “signal-dependent TF pre-mRNA splicing” value was “does not block”.

These data come from US20140099634A1, “USE OF PRE-MRNA SPLICING IN PLATELET CELLS FOR THE DIAGNOSIS OF DISEASE” (priority 2007, published 2014).
